Where “and” joins values, the source holds several entries; their conditions need not be identical. Equal entries are not always repeated.
Assays:
Type in all cases: cell-based
[1] = test system: Hh pathway activation induced by loss of suFU; test: Gli-luciferase assay in suFU−/− mouse embryonic fibroblasts; conditions: suFU−/− cells
Experimental: (§1) Hh activity assays were performed using ShhLightll cells, Smo/Lightll cells, SmoM2/Lightll cells, and suFU−/− mouse embryonic fibroblasts. In the suFU−/− cells, Hh activity was measured after co-transfection with Gli driven firefly luciferase and TK-renilla luciferase reporters^41. Wnt activity was measured in 293 cells co-transfected with Top-flash and TK-renilla luciferase reporters^42. Cells were cultured and treated in 96 well assay plates (Corning) and incubated with Duo-Glo luciferase substrates (Promega) to measure firefly and renilla luciferase activity sequentially using a Top Count NX Microplate Scintillation and Luminescence Counter (Perkin Elmer). The renilla luciferase signal was used to normalize the firefly reporter activity.
(§2) ShhLightII cells and SmoM2/LightII cells were cultured and treated in 96 well assay plates (Corning) and incubated with Duo-Glo luciferase substrates (Promega) to sequentially measure firefly and renilla luciferase activity. […] Wnt activity was measured following co-transfection of a Top-flash and renilla luciferase reporter. […] Luciferase signal was read by TopCount NX Microplate Scintillation and Luminescence Counter (Perkin Elmer). Quantitative PCR probes for Ptch1, Gli1, and β-actin were purchased from Applied Biosystems. […]

[2] = target: T1, Smo::EGFP (Homo sapiens, UniProt Q99835); test: SAG-induced Smo::GFP ciliary accumulation (3T3/Smo::GFP/Ivs::tagRFPT); conditions: 3T3/Smo::GFP/Ivs::tagRFPT cells; 100 nM SAG; read-out: IC50, inhibition of SAG-induced Smo::GFP ciliary accumulation
T1 construct: expressed in transfected cells
Experimental: Cells were cultured and treated in 384-well imaging plate precoated with poly-D-Lysine (Greiner Bio-one), fixed with 4% paraformaldehyde (Electron Microscopy Sciences), and stained with Hoechst (Invitrogen). Images were collected using Opera High Content Screening System (Perkin Elmer). Activityl)ase (IDBS Inc, Emeryvill, Calif.) and Pipeline Pilot (Accelrys, Inc. San Diego, Calif.) were used for high content screening data management and analysis. Acapella 2.0 software (Evotec Technologies/PerkinElmer) was used to perform multi-parametrical high content image quantification. All the images for comparison were scanned with identical microscopic settings and analyzed with the same input parameters.
(§3) Acapella 2.0 software (Evotec Technologies/PerkinElmer) was used to perform multi-parametric high content image quantification. Our image analysis script used Ivs::tagREPT to first determine the location of the PC and then Smo::EGFP to quantify the level of Smo present in the cilium.
The inventors used the spot-finding algorithm in the RFP channel to find Ivs-rich spots. Each non-overlapping spot was based on a maximum 8 pixel-radius (when using a 40× objective) around a central intensity peak of 5 pixels. A distance of at least 10 pixels was required between adjacent spot centers. […] The average, maximum and total RFP intensity of each spot were measured. […]

[3] = test system: Hh pathway activity; test: SAG-induced Gli-luciferase reporter expression (3T3/Shh-LightII); conditions: Mus musculus, Shh Light II, 3T3/Shh-LightII cells; 100 nM SAG; read-out: IC50, inhibition of SAG-induced expression of Gli-luciferase reporter
Experimental: as §1, §2

[4] = test system: Hh pathway activity; test: Gli-luciferase reporter assay, Hh pathway activation by compound alone (NIH/3T3 cells)
Experimental: ShhLightII cells and SmoM2/LightII cells were cultured and treated in 96 well assay plates (Corning) and incubated with Duo-Glo luciferase substrates (Promega) to sequentially measure firefly and renilla luciferase activity. Smo, or GFP, expression plasmids were co-transfected into 3T3 cells together with a Gli-responsive firefly reporter and a TK-renilla luciferase reporter contruct to monitor effects of Smo overexpression. Co-transfection of the two reporter constructs was conducted in assays measuring Hh pathway activity in suFU−/− cells. Wnt activity was measured following co-transfection of a Top-flash and renilla luciferase reporter. In both Hh and Wnt activity assays, renilla luciferase reporter activity, or mass of protein, was used to normalize expression values. Luciferase signal was read by TopCount NX Microplate Scintillation and Luminescence Counter (Perkin Elmer). Quantitative PCR probes for Ptch1, Gli1, and β-actin were purchased from Applied Biosystems. Reactions and measurements were performed using on an Applied Biosystems 7900HT at Harvard FAS Center of System Biology. β-actin was used to normalize Ptch1 and Gil1 values.

[5] = test system: primary cilium (PC); test: Primary cilium markers in the high content assay (Ivs::tagRFPT, Arl13b, acetylated tubulin); conditions: Ivs::tagRFPT and other PC markers
Description: as §3
The inventors used the spot-finding algorithm in the RFP channel to find Ivs-rich spots. Each non-overlapping spot was based on a maximum 8 pixel-radius (when using a 40× objective) around a central intensity peak of 5 pixels. A distance of at least 10 pixels was required between adjacent spot centers. Spot peaks had to exceed thresholds of relative intensity compared to the remaining body of the spot as well as to the entire image. The average, maximum and total RFP intensity of each spot were measured. The spots with sufficiently high absolute maxima to pass the selected threshold were classified as positive spots. To form candidate cilia, the inventors selected the brightest 15% of the pixels in each positive spot and merged those pixels into objects so that the brightest parts of adjacent spots could form single, larger cilia-shaped objects. To qualify the candidate cilia as true Ivs-positive cilia, the width of the objects created from merging the brightest pixels in each spot had to be at least 2 pixels and the length to half-width ratio had to exceed 3. (i.e. a 3-pixel long by 2-pixel wide cilium was the minimum accepted cilium size and the length had to be at least 1.5 fold of the width). The mean GFP intensity within these Ivs-positive cilia was used to estimate the ciliary level of Smo protein. The inventors subtracted the background of the mean GFP intensity in the 3-pixel wide area around each candidate cilium to avoid some false positives. Those Ivs-positive cilia that exceed the final mean GFP intensity threshold set for each experiment were deemed Smo-positive cilia. […]
Cells were cultured and treated in 384-well imaging plate precoated with poly-D-Lysine (Greiner Bio-one), fixed with 4% paraformaldehyde (Electron Microscopy Sciences), and stained with Hoechst (Invitrogen). […] Acapella 2.0 software (Evotec Technologies/PerkinElmer) was used to perform multi-parametric image quantification. All the comparative images were scanned with identical microscopic setting and analyzed with the same input parameters.

T1 sequence (Q99835 28-787): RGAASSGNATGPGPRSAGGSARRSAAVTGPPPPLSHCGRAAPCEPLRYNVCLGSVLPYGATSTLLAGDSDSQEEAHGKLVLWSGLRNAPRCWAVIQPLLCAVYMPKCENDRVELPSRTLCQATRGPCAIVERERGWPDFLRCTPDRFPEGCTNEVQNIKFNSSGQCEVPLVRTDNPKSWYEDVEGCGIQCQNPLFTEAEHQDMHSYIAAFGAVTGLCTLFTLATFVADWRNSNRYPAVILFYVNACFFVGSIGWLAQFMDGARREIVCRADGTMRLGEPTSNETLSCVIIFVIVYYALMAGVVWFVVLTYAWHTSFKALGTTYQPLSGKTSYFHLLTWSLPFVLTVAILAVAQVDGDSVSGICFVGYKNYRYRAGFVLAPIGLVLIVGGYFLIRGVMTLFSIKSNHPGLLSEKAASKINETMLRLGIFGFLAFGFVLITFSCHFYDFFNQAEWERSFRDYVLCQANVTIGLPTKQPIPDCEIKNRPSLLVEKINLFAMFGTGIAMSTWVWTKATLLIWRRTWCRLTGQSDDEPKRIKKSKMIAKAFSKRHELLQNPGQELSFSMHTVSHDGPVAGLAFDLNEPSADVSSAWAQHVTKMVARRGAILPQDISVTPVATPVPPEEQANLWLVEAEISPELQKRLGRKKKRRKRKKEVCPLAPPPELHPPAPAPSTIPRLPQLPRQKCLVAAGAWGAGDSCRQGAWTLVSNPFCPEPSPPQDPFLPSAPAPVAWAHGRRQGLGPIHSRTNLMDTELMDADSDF

| Structure (SMILES) | effect on Hh pathway activation induced by loss of suFU [1] | IC50 [2] | IC50 [3] [nM] | Hh pathway activation in transcription reporter assay ([4]; FA 10 μM) | transcriptional response in Gli-luciferase reporter assay ([4]; FA >50 μM) [fold] | EC50 ([4]; Mus musculus, NIH3T3, Gli-luciferase reporter, compound alone, read-out: EC50 for weak transcriptional activation) [µM] | effect on primary cilium markers / ciliary structure [5] |
| --- | --- | --- | --- | --- | --- | --- | --- |
| CCN(CC)c1ccc(/C=N/NC(=O)c2ccc(O)cc2)cc1 [DY131] | does not alter | ~2000 nM and 2000 nM | ~2000 | – | – | – | – |
| CC1(C)O[C@@H]2C[C@H]3[C@@H]4C[C@H](F)C5=CC(=O)C=C[C@]5(C)[C@@]4(F)[C@@H](O)C[C@]3(C)[C@]2(C(=O)CO)O1 [FA, fluocinolone acetonide] | – | – | – | no pathway activation was observed | 4 | > 50 | unaltered |
